In patent publication US9249148B2, “Tris(hetero)arylpyrazoles and use thereof” (AICURIS GMBH & CO. KG, priority 2012, dated 2016) one finds EC50 data, which are given here for 19 compounds.

Holding throughout (format): cell-based
Test [1] concerns HIV-1NL4-3 wildtype. Kind of test: Luminescence Reduction Assay, luciferase reporter virus in MT4 cells. To be noted: Human immunodeficiency virus 1, MT4, read-out: EC50 (μM) MT4 cells HIV-1NL4-3 wildtype 2% FBS. An excerpt: (§1) For this assay, HIV-1NL4-3 reporter viruses are used which carry the luciferase164 gene (lu164) in place of the nef gene. The viruses are generated by transfection of 293T cells with the corresponding proviral pNL4-3 plasmid (Lipofectamine Reagent, Invitrogen, Karlsruhe, Germany). Starting from the proviral plasmid DNA, viruses with defined resistance mutations (single or combined) are produced in the reverse transcriptase gene using the “QuikChange II XL Site-Directed Mutagenesis Kit” (Stratagene, Cedar Creek, Tex., USA). Resistance mutations include, among others: L74V, A98G, A98S, L100I, K101E, K103N, V106A, V106I, V106M, V108I, V108A, E138K, V179I, V179D, V179E, Y181C, Y181I, Y188L, G190A, G1905, H221Y, P225H, F227C, F227L, F227V, M230I, M230L, L234I, P236L, N348I, T369A, T369I, T369V. MT4 cells infected with these reporter viruses (NIH AIDS Research and Reference Reagent Program) secrete luciferase into the medium, which enables the luminometric quantification of the virus replication.
(§2) For starting a 96-well MTP, 3 million MT4 cells are pelleted, suspended in 1 ml RPMI 1640 medium without phenol red (Invitrogen, Karlsruhe, Germany)/10% FBS/2 mM L-glutamine/1% Pen/Strep (Invitrogen, Karlsruhe, Germany), and incubated for 2 hours at 37° C. with a suitable quantity of the relevant HIV-1NL4-3 reporter virus (pellet infection). Non-adsorbed viruses are then washed out, and the infected cells are pelleted again and suspended in 8 ml RPMI 1640 medium without phenol red/2% or 10% FBS/2 mM L-glutamine/1% Pen/Strep. From this, 90 μl per well is pipetted into a white 96-well MTP to 10 μl of test substance at a suitable level of dilution. In order to avoid edge effects, the edge wells of the MTP are not used for substance dilutions. The second vertical row of the MTP contains only infected cells (virus control) and the eleventh vertical row only non-infected cells (cell control), each in RPMI 1640 medium without phenol red/2% or 10% FBS/2 mM L-glutamine/1% Pen/Strep. The remaining wells of the MTP contain the compounds in accordance with the invention in various concentrations, starting from the third vertical row, from which the test substances are diluted in 3-step sequences up to the tenth vertical row by a factor of 3^7. The test substances are dissolved in DMSO; the final DMSO concentration in the test formulation is 1%.
(In general: A reporter such as luciferase makes a cellular process visible.)

The subject of test [2] is HIV-1NL4-3 K103N-Y181C. Kind of test: Luminescence Reduction Assay, luciferase reporter virus with resistance mutations in MT4 cells. Particulars: Human immunodeficiency virus 1, MT4, read-out: EC50 (μM) MT4 cells HIV-1NL4-3 K103N-Y181C 2% FBS.
Description: as §1, §2

Test [3] relates to HIV-1LAI wildtype. Briefly: alamarBlue Viability Assay with HIV-1LAI-infected MT4 cells. Particulars: Human immunodeficiency virus 1, 10% FBS. The protocol: For starting a 96-well MTP, 3 million PBLs are pelleted, suspended in 1 ml RPMI 1640 medium/10% FBS/2 mM L-glutamine/1% Pen/Strep and incubated for 2 hours at 37° C. with a suitable quantity of the relevant HIV-1LAI (NIH AIDS Research & Reference Reagent Program, Germantown, USA) (pellet infection). Non-adsorbed viruses are then washed out, and the infected cells pelleted again and suspended in 18 ml RPMI 1640 medium/10% FBS/2 mM L-glutamine/1% Pen/Strep/Interleukin-2 (40 U/ml). From this, 180 μl per well is pipetted into a 96-well MTP to 20 μl of test substance at a suitable level of dilution. Alternatively, the HIV is added after preparation of the substance dilutes in the MTP together with the cells, and is not washed out (supernatant infection). In order to avoid edge effects, the edge wells of the MTP are not used for substance dilutions. The second vertical row of the MTP contains only infected cells (virus control) and the eleventh vertical row only non-infected cells (cell control), each in RPMI 1640 medium/10% FBS/2 mM L-glutamine/1% Pen/Strep/Interleukin-2 (40 U/ml). The remaining wells of the MTP contain the compounds in accordance with the invention in various concentrations, starting from the third vertical row, from which the test substances are diluted in 3-step sequences up to the tenth vertical row by a factor of 3^7. The test substances are dissolved in DMSO; the final DMSO concentration in the test preparation is 1%. The test samples are incubated for 5 days at 37° C./5% CO2. After 5 to 7 days, 50 μl of cell-free supernatant is removed from each well to determine its p24 content using p24 ELISA (HIV-1 p24CA Antigen Capture Assay Kit, NCI-Frederick Cancer Research and Development Center, Frederick, USA). From the resulting values of the photometric analysis (450/620 nm), the EC50 values of the test substances are determined from the resulting dose-response curves using the Prism4 software (GraphPad, San Diego, Calif.) as the concentration of treated infected cells, where the p24 quantity is 50% of the untreated infected cells.
Alternatively, MT4 cells are used in place of PBLs for testing the test substances. HIV-1LAI-infected MT4 cells (MOI 0.01, supernatant infection) are incubated in accordance with the procedure described above in RPMI 1640 medium using 2% or 10% FKS/2 mM L-glutamine/1% Pen/Strep in the presence of the test substances for 5 days at 37° C./5% CO2 (10 μl diluted substance and 90 μl cells/virus per well). 10 μl alamarBlue (Invitrogen, Karlsruhe, Germany) is then added per well and the MTPs are incubated for 3 hours at 37° C. before fluorimetric evaluation is performed (544/590 nm). Using quattroWorkflow software (Quattroresearch, Martinsried, Germany), the EC50 values of the test substances are determined from the resulting dose-response curves as the concentration of treated infected cells in which the fluorescence is 50% of that of the untreated, non-infected cells.

Where only a bound is given, the exact number is not on record here.

In the case of `O=C1NCc2c1ccnc2-c1cc(-c2cc(F)cc(Cl)c2)n(-c2cccnc2)n1` [Example 2, 4-[5-(3-chloro-5-fluorophenyl)-1-(pyridine-3-yl)-1H-pyrazole-3-yl]-2,3-dihydro-1H-pyrrolo[3,4-c]pyridine-1-one], the results for the EC50 in test [1], in test [2] and in test [3] were 0.0013 µM, 0.0132 µM and 0.0063 µM, respectively.

In the case of `N#Cc1cccc(-c2cc(-c3nccc4c3CNC4=O)nn2-c2ccc(F)cc2)c1` [Example 35], the results for the EC50 in test [1], in test [2] and in test [3] were 0.0593 µM, 0.0317 µM and 0.15 µM, respectively.

With `O=C1NCc2c1ccnc2-c1cc(-c2cc(F)cc(OC(F)(F)F)c2)n(-c2cccnc2)n1` [Example 6, 4-{5-[3-fluoro-5-(trifluoromethoxy)phenyl]-1-(pyridine-3-yl)-1H-pyrazole-3-yl}-2,3-dihydro-1H-pyrrolo[3,4-c]pyridine-1-one], the EC50 in test [1] was 0.0024 µM; in test [2], 0.0083 µM; in test [3], 0.0137 µM.

With `O=C1NCc2c1cccc2-c1cc(-c2cc(F)cc(Cl)c2)n(-c2ccc(F)c(Cl)c2)n1` [Example 3, 4-[1-(3-chloro-4-fluorophenyl)-5-(3-chloro-5-fluorophenyl)-1H-pyrazole-3-yl]-2,3-dihydro-1H-isoindole-1-one], the results for the EC50 in test [1], in test [2] and in test [3] were 0.006 µM, 0.0289 µM and 0.0586 µM, respectively.

Take `COc1cccc(-n2nc(-c3cccc4c3CNC4=O)cc2-c2ccnc(Cl)c2)c1` [Example 40]: the EC50 in test [1] was determined as 0.0517 µM; in test [2], 0.499 µM; in test [3], 0.222 µM.

As to `O=C1NCc2c1ccnc2-c1cc(-c2cc(Br)cc(OC(F)F)c2)n(-c2ccnc(Cl)c2)n1` [Example 20, 4-{5-[3-bromo-5-(difluoromethoxy)phenyl]-1-(2-chloropyridine-4-yl)-1H-pyrazole-3-yl}-2,3-dihydro-1H-pyrrolo[3,4-c]pyridine-1-one], the EC50 stood at 0.001 µM in test [1], 0.004 µM in test [2] and 0.0118 µM in test [3].

With `O=C1NC(=O)c2c1cccc2-c1cc(-c2cc(F)cc(OC(F)(F)F)c2)n(-c2cccnc2)n1` [Example 8, 4-{5-[3-fluoro-5-(trifluoromethoxy)phenyl]-1-(pyridine-3-yl)-1H-pyrazole-3-yl}-1H-isoindole-1,3(2H)-dione], the figures for the EC50 in test [1], in test [2] and in test [3] were 0.643 µM, greater than 3.3 µM and greater than 3.3 µM, respectively.

Regarding `O=C1NCc2c1ccnc2-c1cc(-c2cc(F)cc(OC(F)F)c2)n(-c2ccc(F)c(Cl)c2)n1` [Example 15, 4-{1-(3-chloro-4-fluorophenyl)-5-[3-(difluoromethoxy)-5-fluorophenyl]-1H-pyrazole-3-yl}-2,3-dihydro-1H-pyrrolo[3,4-c]pyridine-1-one], the EC50 in test [1] is 0.0044 µM; in test [2], 0.0085 µM; in test [3], 0.0171 µM.

Regarding `O=C1NCc2c1ccnc2-c1cc(-c2cc(Cl)cc(OC(F)(F)F)c2)n(-c2cccnc2)n1` [Example 10, 4-{5-[3-chloro-5-(trifluoromethoxy)phenyl]-1-(pyridine-3-yl)-1H-pyrazole-3-yl}-2,3-dihydro-1H-pyrrolo[3,4-c]pyridine-1-one], the EC50 was 0.0012 µM in test [1], 0.0027 µM in test [2] and 0.008 µM in test [3].

With `O=C1NCc2c1cccc2-c1cc(-c2cc(F)cc(OC(F)(F)F)c2)n(-c2cccnc2)n1` [Example 7, 4-{5-[3-fluoro-5-(trifluoromethoxy)phenyl]-1-(pyridine-3-yl)-1H-pyrazole-3-yl}-2,3-dihydro-1H-isoindole-1-one], the figures for the EC50 in test [1], in test [2] and in test [3] were 0.0107 µM, 0.0206 µM and 0.0512 µM, respectively.

Turning to `N#Cc1cccc(-c2cc(-c3cccc4c3CNC4=O)nn2-c2ccc(F)cc2)c1` [Example 36], the EC50 amounted to 0.0848 µM in test [1], 0.0675 µM in test [2] and 0.449 µM in test [3].

Consider `COc1cc(OC(F)(F)F)cc(-c2cc(-c3nccc4c3CNC4=O)nn2-c2ccc(F)c(Cl)c2)c1` [Example 27], for which the EC50 worked out at 0.0384 µM in test [1], 0.0219 µM in test [2] and 0.148 µM in test [3].

As for `O=C1NCc2c1ccnc2-c1cc(-c2cc(Br)cc(OC(F)(F)F)c2)n(-c2cccnc2)n1` [Example 13, 4-{5-[3-bromo-5-(trifluoromethoxy)phenyl]-1-(pyridine-3-yl)-1H-pyrazole-3-yl}-2,3-dihydro-1H-pyrrolo[3,4-c]pyridine-1-one], the EC50 in test [1] is 0.0011 µM; in test [2], 0.0025 µM; in test [3], 0.0086 µM.

Take `O=C1NCc2c1ccnc2-c1cc(-c2cc(F)cc(OC(F)F)c2)n(-c2cccnc2)n1` [Example 14, 4-{5-[3-(difluoromethoxy)-5-fluorophenyl]-1-(pyridine-3-yl)-1H-pyrazole-3-yl}-2,3-dihydro-1H-pyrrolo[3,4-c]pyridine-1-one]: the values for the concentration giving a half-maximal response (EC50) in test [1], in test [2] and in test [3] were 0.001 µM, 0.0097 µM and 0.0053 µM, respectively.

`O=C1NCc2c1ccnc2-c1cc(-c2ccc(F)c(OC(F)(F)F)c2)n(-c2cccc(Cl)c2)n1` [Example 43]: the concentration for a half-maximal effect (EC50) in test [1] was determined as 0.0568 µM; in test [2] it was 0.2 µM; in test [3] it was 0.674 µM.

For the compound `O=C1NCc2c1ccnc2-c1cc(-c2cccc(Cl)c2)n(-c2cccc(C(F)(F)F)c2)n1` [Example 37], the concentration for a half-maximal effect (EC50) stood at 0.0288 µM in test [1], 0.148 µM in test [2] and 0.0835 µM in test [3].

Consider `O=C1NCc2c1cccc2-c1cc(-c2cc(F)cc(Cl)c2)n(-c2cccnc2)n1` [Example 4, 4-[5-(3-chloro-5-fluorophenyl)-1-(pyridine-3-yl)-1H-pyrazole-3-yl]-2,3-dihydro-1H-isoindole-1-one], for which the 50% effective concentration (EC50) in test [1] was found to be 0.0055 µM; in test [2], 0.042 µM; in test [3], 0.0155 µM.

As to `O=C1NCc2c1ccnc2-c1cc(-c2cncc(Cl)c2)n(-c2ccc(F)c(Cl)c2)n1` [Example 31], the EC50 in test [1] was 0.0008 µM; in test [2], 0.0024 µM; in test [3], 0.0041 µM.

Turning to `Cc1ccc(-n2nc(-c3nccc4c3CNC4=O)cc2-c2cc(F)cc(Cl)c2)cc1Cl` [Example 28], the EC50 in test [1] was 0.0172 µM; in test [2], 0.0291 µM; in test [3], 0.0876 µM.

By EC50 is commonly meant the concentration giving half of the maximal effect.
